Laboratory results as given in PMC10804372, “Degradation by Design: New Cyclin K Degraders from Old CDK Inhibitors” (ACS Chemical Biology, 2024).

Experiments:
Cyclin K [1] = experiment: Cyclin K degradation concentration-response (DC50, DMax) by Western blot; format: cell-based, human; settings: for DMax (%) / DC50: HEK293T, Western blot quantification, 3 biological repeats; for DC50: read-out: CycK DC50; for fold decrease in degradation ability versus pyridine counterpart: furan analogues vs 1 (CR8), 36, 40
Procedure: With the aim of comparing the degradation ability of the new analogues, we derived DC50 values by using Western blotting (Table 5). […] This approach has been previously used to improve the potency of BCL6 degraders.[33] We therefore also measured CDK12 affinity using the KINOMEscan binding assay (Table 5).[34]
(§1) HEK293T human […] kidney cells were cultured in DMEM (Gibco/Life Technologies), containing 25 mM D-glucose, 4 mM L-glutamine, and 1 mM sodium pyruvate, and supplemented with 10% (v/v) FBS and 1% nonessential amino acids (Gibco/Life Technologies). Cells were incubated at 37 °C in a humidified atmosphere with 5% CO2.
(§2) Cells were washed with PBS and lysed (20 mM HEPES pH 7.5, 10% glycerol, 0.4 M KCl, 0.4% Triton X-100, 15 mM EDTA, and 1× protease and phosphatase inhibitors). The insoluble fraction was removed by centrifugation. Protein quantification was performed using a Bradford assay and compared to a BSA calibration curve. Equal amounts of lysates were run on SDS–PAGE 4–12% Bis–Tris Protein Gels (NuPAGE, Thermo Fisher Scientific) and then transferred onto Immobilon-P PVDF Membrane (Millipore, IPVH00010) using a Mini Trans-Blot Cell (Bio-Rad, 1703930). The membranes were blocked with 5% bovine albumin serum (BSA) in Tris-buffered saline with Tween 20 (TBS-T) and incubated with primary antibodies overnight at 4 °C. The membranes were washed three times with TBS-T and incubated with HRP-conjugated secondary antibody (BioRad) for 2 h. Membranes were washed again three times with TBS-T before being developed using Pierce ECL Western Blotting Substrate (Thermo, 32106) and visualized using LI-COR. Antibodies were purchased from Cell Signaling Technology: anti-GAPDH (D4C6R) and anti-DDB1 (D4C8) or Bethyl Laboratories: anti-Cyclin K (A301-939A). The following HRP-linked secondary antibodies were used by dilution in 5% BSA/TBS-T: antirabbit IgG (BioRad, 5213–2504) and antimouse IgG (BioRad, 103005).
(§3) Unedited blots containing the marker lane are available on request. Western blots were quantified using ImageJ. Cyclin K levels were normalized using GAPDH as a loading control. DC50 values were calculated from concentration–response curves using nonlinear regression fit to a 4-parameter curve by GraphPad Prism.

CDK12 = biological target: T1, CDK12 (Homo sapiens, UniProt Q9NYV4); experiment: KINOMEscan binding assay (Eurofins DiscoverX); settings: for Kd: KINOMEscan
T1 construct: purchased Eurofins DiscoverX (KINOMEscan service)

Cyclin K [2] = experiment: Cyclin K levels by Western blot after single-concentration treatment; format: cell-based, human; settings: HEK293T cells, 1 μM for 2 h; for cyclin K degradation: Western blot; for Remaining Cyclin K (%): quantified from Western blots, mean ± SD, three independent experiments
Procedure: as §1, §2, §3

T1 sequence (Q9NYV4 whole entry): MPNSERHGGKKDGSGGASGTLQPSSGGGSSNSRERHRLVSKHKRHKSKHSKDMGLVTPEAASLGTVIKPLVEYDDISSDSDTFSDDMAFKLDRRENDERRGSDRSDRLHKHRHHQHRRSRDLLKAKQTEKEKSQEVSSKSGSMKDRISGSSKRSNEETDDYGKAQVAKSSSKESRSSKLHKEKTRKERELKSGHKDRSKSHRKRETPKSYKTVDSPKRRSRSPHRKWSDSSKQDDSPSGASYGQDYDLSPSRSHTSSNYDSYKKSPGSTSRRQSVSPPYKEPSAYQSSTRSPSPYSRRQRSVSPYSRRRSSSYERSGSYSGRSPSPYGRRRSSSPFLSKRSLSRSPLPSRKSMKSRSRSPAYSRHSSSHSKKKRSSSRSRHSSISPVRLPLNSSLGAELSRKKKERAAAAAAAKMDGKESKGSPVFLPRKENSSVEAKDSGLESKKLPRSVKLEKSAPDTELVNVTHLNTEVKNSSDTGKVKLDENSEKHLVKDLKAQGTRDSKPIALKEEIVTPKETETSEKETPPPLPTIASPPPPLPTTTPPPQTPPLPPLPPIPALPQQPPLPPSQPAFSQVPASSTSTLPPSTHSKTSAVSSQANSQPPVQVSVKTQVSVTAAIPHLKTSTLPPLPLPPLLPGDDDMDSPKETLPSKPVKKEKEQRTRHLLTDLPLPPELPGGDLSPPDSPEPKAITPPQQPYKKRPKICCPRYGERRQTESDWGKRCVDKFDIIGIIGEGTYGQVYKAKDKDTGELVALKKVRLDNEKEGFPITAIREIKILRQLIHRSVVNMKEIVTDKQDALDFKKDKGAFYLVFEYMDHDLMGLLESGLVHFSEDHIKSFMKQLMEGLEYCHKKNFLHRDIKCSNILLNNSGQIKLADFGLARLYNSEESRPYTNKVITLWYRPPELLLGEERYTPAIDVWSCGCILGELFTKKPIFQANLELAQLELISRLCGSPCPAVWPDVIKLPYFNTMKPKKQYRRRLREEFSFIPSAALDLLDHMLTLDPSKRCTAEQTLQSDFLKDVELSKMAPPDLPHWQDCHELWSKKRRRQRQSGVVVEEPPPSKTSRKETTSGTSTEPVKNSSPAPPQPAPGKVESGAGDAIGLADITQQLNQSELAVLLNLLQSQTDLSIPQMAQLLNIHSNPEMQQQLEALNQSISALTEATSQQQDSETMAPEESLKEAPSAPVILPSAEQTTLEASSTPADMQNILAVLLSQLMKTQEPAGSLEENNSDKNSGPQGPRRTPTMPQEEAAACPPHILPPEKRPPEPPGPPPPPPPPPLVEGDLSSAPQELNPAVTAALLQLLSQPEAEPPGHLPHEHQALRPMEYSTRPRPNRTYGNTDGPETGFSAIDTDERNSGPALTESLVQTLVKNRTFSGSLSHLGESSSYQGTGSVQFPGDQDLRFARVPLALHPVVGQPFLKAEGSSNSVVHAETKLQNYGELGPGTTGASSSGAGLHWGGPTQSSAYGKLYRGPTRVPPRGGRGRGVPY

SMILES	DMax (%) (Cyclin K [1])	DC50 (Cyclin K [1]) [nM]	Kd (CDK12) [nM]	cyclin K degradation (Cyclin K [2])	Remaining Cyclin K (%) (Cyclin K [2])	also measured
CC[C@H](CO)Nc1nc(NCc2ccc(-c3cccc(C)n3)cc2)c2ncn(C(C)C)c2n1 [compound 12]	>95	106	220	complete degradation	4 ± 4	
CC[C@H](CO)Nc1nc(NCc2ccc(C)cc2)c2ncn(C(C)C)c2n1 [compound 32]				little to no degradation	89 ± 8	
CC[C@H](CO)Nc1nc(NCc2ccc(Br)cc2)c2ncn(C(C)C)c2n1 [compound 33]				little to no degradation	73 ± 29	
C=Cc1ccc(CNc2nc(N[C@H](CC)CO)nc3c2ncn3C(C)C)cc1 [compound 34]				little to no degradation	63 ± 22	
CCc1ccc(CNc2nc(N[C@H](CC)CO)nc3c2ncn3C(C)C)cc1 [compound 35]				little to no degradation	90 ± 14	
OCCC1CCCCN1c1cc(NCc2ccc(-c3ccccn3)cc2)n2ncc(Br)c2n1 (stereo not shown) [compound 36]	>95	10	4		2 ± 1	improvement in degradation as measured by DC50 versus compound 1 (Cyclin K [1]; 36 vs 1): fivefold; fold better CDK12 affinity versus CR8/seliciclib-core analogue (CDK12; 36 vs 1, 37 vs 21): 100 fold
Cc1ccnc(-c2ccc(CNc3cc(N4CCCCC4CCO)nc4c(Br)cnn34)cc2)c1 (stereo not shown) [compound 38]					3 ± 4	
OCCC1CCCCN1c1cc(NCc2ccc(-c3ccco3)cc2)n2ncc(Br)c2n1 (stereo not shown) [compound 39]	>95	72	17		4 ± 4	fold decrease in degradation ability versus pyridine counterpart (Cyclin K [1]): 4–8 fold
O=C(NCc1ccc(-c2ccccn2)cc1)c1n[nH]cc1NC(=O)c1c(Cl)cccc1Cl [compound 40]	>95	21	1000		1 ± 1	fold difference (weaker) in CDK12 binding affinity versus compound 36 (CDK12; 40 vs 36): 250 fold
O=C(NCc1ccc(-c2ccco2)cc1)c1n[nH]cc1NC(=O)c1c(Cl)cccc1Cl [compound 42]	>95	168	1000		20 ± 14	fold decrease in degradation ability versus pyridine counterpart (Cyclin K [1]): 4–8 fold
OCCC1CCCCN1c1cc(NCc2ccccc2)n2ncc(Br)c2n1 (stereo not shown) [compound 43]			10			
O=C(NCc1ccccc1)c1n[nH]cc1NC(=O)c1c(Cl)cccc1Cl [compound 44]			5500			
